Results published in patent US12005139B2, “Ophthalmic formulations and related methods” (EternaTear, Inc., priority 2022, dated 2024).

Tested on: cell layers
Test: USP (87) biological reactivity testing (cytotoxicity)
Assay type: cell-based
Design: key: “severe” reactivity meaning there was nearly complete destruction of all cell layers
Settings: dilutions of 50 ppm BAK with EDTA in saline ophthalmic vehicle, down to 5% of use concentration
Protocol: Testing was conducted by a neutral third party laboratory to determine the cytotoxicity of benzalkonium chloride (BAK) when used as a preservative in a standard topical saline ophthalmic solution vehicle. Test solutions of BAK at various dilutions at the typical preservation concentration used in ophthalmic products (50 ppm) were subject to USP (87) biological reactivity testing and graded according to reactivity. All solutions contained EDTA as an adjunct to enable the BAK to be active against gram negative bacteria. All negative and positive controls were nominal.

For benzalkonium chloride [BAK], which “USP (87) biological reactivity grade” value is on record?
The value was “severe”.
